Results reported in patent publication US4624954A, “6,7,8,9-tetrahydro-10-methylpyrido[1,2-a]indol-9-amines and derivatives thereof, useful for the treatment of cognitive impairments” (American Home Products Corporation, priority 1985, dated 1986).
Where a name gives a salt, the structure may show the parent alone.

Assay: Anoxia-induced lethality test in mice (survival in 100% nitrogen)
Format: in vivo, Male, CD-1 mice
Settings: Mus musculus, ip, 30 minutes prior to testing; 100% nitrogen for 80 seconds; read-out: ED50, protected from anoxia-induced lethality in mice
Description: To test the protective ability of the compounds of formula I against the physical consequences of anoxia, mice were exposed to an atmosphere of pure nitrogen which killed all of the animals. Intraperitoneal pretreatment of mice with the compounds of formula I protected them against this lethal effect.
ANOXIA-INDUCED LETHALITY TEST IN MICE
The anoxia-induced lethality test in mice evaluates the activity of drugs which protect the animal from deleterious effects of oxygen-lack, such as occurs in conditions of cerebral ischemia. Activity is measured as the survival rate in mice exposed to 100% nitrogen for 80 seconds, a procedure which is lethal to […] of untreated animals.
Test compounds are dissolved in water, or suspended in 0.2% aqueous Tween 80 and are administered i.p., 30 minutes prior to testing. Several doses and a vehicle control are tested, with 8 mice receiving each dose.
Male, CD-1 mice weighing 18-20 g are used. Mice are held separately within a cage in a modified plastic, air-tight desiccator which is connected to a tank of compressed 100% nitrogen gas.
Delivery of the anoxic gas is controlled by means of a toggle valve, and exposure is terminated by rapidly removing the mice from the desiccator. All operations are timed with a stopwatch. An ED50 value is determined from the percentage of mice which survive in each group. Drugs which reduce the anoxia-induced lethality solely by lowering body temperature are excluded.

SMILES	ED50
Cc1c2n(c3ccccc13)CCCC2N(C)C.Cl (stereo not drawn) [Example 3, 6,7,8,9-Tetrahydro-N,N,10-trimethylpyrido[1,2-a]indole-9-amine Hydrochloride]	13.5 mg/kg

Same assay, conditions: Mus musculus, ip, read-out: ED50, protected from anoxia-induced lethality in mice

SMILES	ED50
CCC1(CC)CCn2c(c(C)c3ccccc32)C1N1CCCC1 (stereo not drawn) [Example 6, 8,8-diethyl-6,7,8,9-tetrahydro-10-methyl-9-(1-pyrolidinyl)pyrido[1,2-a]indole Hydrochloride]	20 mg/kg
C#CCNC1CCCn2c1c(C)c1ccccc12.Cl (stereo not drawn) [Example 7, 6,7,8,9-Tetrahydro-10-methyl-N-(2-propynyl)pyrido[1,2-a]indol-9-amine Hydrochloride]	22 mg/kg
Cc1c2n(c3ccccc13)CCC(C)(C)C2N(C)C1CCCCC1 (stereo not drawn) [Example 32, N-Cyclohexyl-6,7,8,9-tetrahydro-N,8,8,10-tetramethylpyrido[1,2-a]indol-9-amine]	8.8 mg/kg
Cc1c2n(c3ccccc13)CCCC2N1CCCCC1.Cl (stereo not drawn) [Example 8, 6,7,8,9-Tetrahydro-10-methyl-9-(1-piperidinyl)-pyrido[1,2-a]indole Hydrochloride]	55.7 mg/kg
CNC1CCCn2c1c(C)c1ccc(OC)cc12.Cl (stereo not drawn) [Example 27, 6,7,8,9-Tetrahydro-3-methoxy-N,10-dimethylpyrido[1,2-a]indol-9-amine Hydrochloride]	15.1 mg/kg
Br.Cc1c2n(c3ccccc13)CCC(C)(C)C2N(C)C (stereo not drawn) [Example 4, 6,7,8,9-Tetrahydro-N,N,8,8,10-pentamethylpyrido[1,2-a]indol-9-amine Hydrobromide]	5 mg/kg
Cc1c2n(c3ccccc13)CCCC2N1CCOCC1.Cl (stereo not drawn) [Example 9, 6,7,8,9-Tetrahydro-10-methyl-9-(4-morpholinyl)-pyrido[1,2-a]indole Hydrochloride]	32.4 mg/kg
COc1ccc2c(C)c3n(c2c1)CCCC3N(C)C.Cl (stereo not drawn) [Example 28, 6,7,8,9-Tetrahydro-3-methoxy-N,N,10-trimethylpyrido[1,2-a]indol-9-amine Hydrochloride]	20 mg/kg
Cc1c2n(c3ccccc13)CCCC2N1CCCC1.Cl (stereo not drawn) [Example 2, 6,7,8,9-Tetrahydro-10-methyl-9-(1-pyrrolidinyl)pyrido[1,2-a]indole Hydrochloride]	83.3 mg/kg
Cc1c2n(c3ccccc13)CCC(C)(C)C2N1CCCC1 (stereo not drawn) [Example 1, 6,7,8,9-Tetrahydro-8,8,10-trimethyl-9-(1-pyrrolidinyl)-pyrido[1,2,a]indole Hydrochloride]	11.2 mg/kg
Cc1c2n(c3ccccc13)CCC(C)(C)C2N.Cl (stereo not drawn) [Example 29, 6,7,8,9-Tetrahydro-8,8,10-trimethylpyrido[1,2-a]indol-9-amine Hydrochloride]	17.2 mg/kg
Br.Cc1c2n(c3ccc(O)cc13)CCC(C)(C)C2N1CCCC1 (stereo not drawn) [Example 33, 6,7,8,9-Tetrahydro-2-hydroxy-8,8,10-trimethyl-9-(1-pyrrolidinyl)-pyrido[1,2-a]indole Hydrobromide]	20 mg/kg
Cc1c2n(c3ccc(Br)cc13)CCC(C)(C)C2N1CCCC1.Cl (stereo not drawn) [Example 17, 2-Bromo-6,7,8,9-tetrahydro-8,8,10-trimethyl-9-(1-pyrrolidinyl)pyrido[1,2-a]indole Hydrochloride]	50 mg/kg
Cc1c2n(c3ccc(Br)cc13)CCCC2N1CCCCC1.Cl (stereo not drawn) [Example 19, 2-Bromo-6,7,8,9-tetrahydro-10-methyl-9-(1-piperidinyl)-pyrido[1,2-a]indole Hydrochloride]	110 mg/kg

Assay: Passive avoidance test: prevention of scopolamine-induced memory impairment in rats
Format: in vivo, male Sprague-Dawley rats
Settings: 30 mg/kg test compound, oral, 75 or 90 min before training; scopolamine 2 mg/kg s.c.; retention test 24 h later, 180 seconds access
Description: In the test, a rat must remember to avoid a darkened enclosure where it had been shocked the previous day.
This passive avoidance procedure uses a test chamber divided into two compartments: a lighted compartment and a dark compartment.
The two compartments are separated by a solenoid-operated slide door. An inescapable foot shock (750 μA for two seconds) can be presented to the grid floor of the dark compartment.
On the training day, male Sprague-Dawley rats (eight animals are tested per group) are placed in the lighted compartment and given access to the adjacent dark compartment. Upon entering the dark compartment, the rat is given an inescapable foot shock. Twenty-four hours later retention (memory) is tested: the rat is placed in the lighted compartment and allowed access to the dark compartment for 180 seconds.
Compounds to be tested are dissolved in 0.9% saline or suspended in Tween 80 (0.2% v/v in saline) or methyl cellulose (0.5% w/v in distilled water). […] Appropriate vehicle and control groups are included with each experiment. Each animal is given a single training trial.

SMILES	mean entry latency on retention day
Cc1c2n(c3ccccc13)CCCC2N1CCCC1.Cl (stereo not drawn) [Example 2, 6,7,8,9-Tetrahydro-10-methyl-9-(1-pyrrolidinyl)pyrido[1,2-a]indole Hydrochloride]	135 s
Cc1c2n(c3ccccc13)CCC(C)(C)C2N1CCCC1 (stereo not drawn) [Example 1, 6,7,8,9-Tetrahydro-8,8,10-trimethyl-9-(1-pyrrolidinyl)-pyrido[1,2,a]indole Hydrochloride]	152 s

Assay: not given
Settings: scopolamine alone; passive avoidance; cited from earlier work

SMILES	memory effect of scopolamine (in words)
CN1[C@@H]2C[C@@H](OC(=O)[C@H](CO)c3ccccc3)C[C@H]1[C@@H]1O[C@@H]12 [scopolamine]	impairs the rat's ability to remember to avoid the darkened enclosure
